Test system: CAIA mice
Assay: Collagen type II antibody-induced arthritis (CAIA) mouse model
Assay type: in vivo
Protocol: FIG. 9A-H the effect of SNS on hind paw swelling in CAIA mice. A and E: Day 0, B and F: Day 7, C: Day 10 in PBS-treated CAIA, G: Day 10 in SNS-treated CAIA after 3 injections, D: Day 12 in PBS-treated mice, and H: Day 12 in SNS-treated CAIA mice after five injections. SNS treatment was started on day 7 after anti-collagen type II mAb injection and i.p. injections of SNS were continued for 5 consecutive days at a dose of 5 mg/kg.
FIG. 10 is a graph of the data (exemplified in FIG. 9) on CAIA progression and effect of SNS on foot pad measurements in CAIA mice. Solid square: PBS-treated CAIA group (n=5), closed triangle: SNS-treated CAIA group (n=5). SNS treatment (i.p.) was started on day 7 after anti-collagen type II mAb injection, and SNS injections were continued for 5 consecutive days at a dose of 5 mg/kg. Values represent mean±S.E.M. P<0.0001. Statistical analysis was performed using t-test.
Sections of ankle joints were stained with hematoxylin and eosin (original magnification, ×10) on day 21 after mAb injection. SNS treatment (i.p.) was started on day 7 after anti-collagen type II mAb injection, and SNS injections were continued for 5 consecutive days at a dose of 5 mg/kg. Representative joint sections in non-CAIA group (A and D), PBS-treated CAIA (B and E), and SNS-treated CAIA (C and F) are shown at magnifications of ×10 and ×40, respectively.
Collagen-induced arthritis (CIA) is an experimental model for rheumatoid arthritis. In this model, antibodies against type II collagen are critical for the pathogenesis of arthritis. […] This model system has been used for investigating underlying cellular and molecular mechanisms during the effector phase of CIA (1).
FIGS. 9-10 show CAIA progression and the effect of SNS on hind paw swelling in CAIA mice. […] A and E: Day 0 (mAb immunization), B and F: Day 7 after antibody injection, C. Day10 after immunization in PBS-treated CAIA, G: Day 10 after immunization in SNS-treated CAIA after three SNS injections, D: Day 12 after immunization in PBS-treated CAIA mice, and […]: Day 12 after immunization in SNS-treated CAIA mice after five SNS injections. Ib. […] Solid square: control CAIA group treated with PBS (n=5), closed triangle: sodium narcistatin-treated CAIA group (n=5). Values represent mean±S.E.M. p<0.0001 vs. control CAIA group.

**Q.** O=C1N[C@@H]2C(=C[C@H](O)[C@H]3OP(=O)(O)O[C@H]32)c2cc3c(c(O)c21)OCO3 [SNS, sodium narcistatin] was tested. Which “joint swelling after the fifth injection” value (CAIA mice, 5 mg/kg i.p.) did it give?
**A.** Its value is “swelling disappeared”.

**Q.** What about the “joint swelling after the third injection” value (CAIA mice, 5 mg/kg i.p.) of the same compound?
**A.** Its value is “reduced joint swelling”.

**Q.** What about the ankle width (CAIA mice, 5 mg/kg i.p. 5 consecutive days from day 7, vs saline-treated, P<0.0001) of the same compound?
**A.** Its ankle width is “significant decrease”.

**Q.** And the “histology of ankle joints: inflammatory infiltration, cartilage and bone destruction” value (CAIA mice, day 21, hematoxylin and eosin)?
**A.** Its value is “very little inflammatory infiltration to ankle joints and virtually no cartilage and bone destruction”.

**Q.** What about the “toxicity in CAIA study” value (at the dosage used) of the same compound?
**A.** Its value is “toxic to the animals”.

**Q.** And the “toxicity, SNS treatment only” value (mice that only received SNS)?
**A.** The value was “did not observe toxicity”.

**Q.** What about the “toxicity, combination of SNS and LPS treatment” value (mouse, in vivo) of the same compound?
**A.** The value was “appeared to increase toxicity”.
